Reference: patent US5166208A, “Fredericamycin A derivatives” (Boston College, priority 1991, dated 1992)
In brackets after ≈: the same amount, converted by molar mass. Where a name gives a salt, the structure may show the parent alone.

How the values were obtained:
[1] = test system: human lung (A549); experiment: In vitro microdilution inhibition, human lung A549; assay type: cell-based; conditions: A549, 72 hours, 50% of cells killed
Source text: (§1) As shown in Table III the compounds of the present invention exert an in vitro antitumor effect. The following cells lines were employed: human lung (A549); resistant human lung with low topo II activity (A549-VP); murine melanoma (B16); human colon tumor (HCT116); human colon tumor with elevated p170 levels (HCTVM); human colon tumor with low topo II activity (HCTVP); and another human colon carcinoma cell line (Moser). In the Table, the designation "NT" indicates the compound was not tested against the specified cell line. The cell lines were maintained in continuous culture at 37°, 5% CO2 and high humidity. Cells were harvested in log phase growth and suspended at concentration of 25,000 cells/mL. A […] aliquot was then added to each well (i.e., 3,750 cells per well) of a 96-well flat bottom plate and the cells were allowed to attach over a 24 hour period. After this 24 hour incubation, a 50 μL sample of the specified compound was added to the first (top) well of each column, and the remaining wells of each column serially diluted, 1:4, and allowed to incubate for 72 hours at 37° C., 5% CO2 and high humidity. Following incubation, 50 μL of freshly prepared stain solution was added to each well. After a 3 hour incubation at room temperature, absorbance was read at 450 nm on a microplate reader to determine the compound concentration at which 50% of the cells were killed, such concentration referred to as the "IC50 ".

[2] = test system: resistant human lung with low topo II activity (A549-VP); experiment: In vitro microdilution inhibition, resistant human lung A549-VP; assay type: cell-based; conditions: A549VP, 72 hours, 50% of cells killed
Source text: as §1

[3] = test system: murine melanoma (B16); experiment: In vitro microdilution inhibition, B16; assay type: cell-based; conditions: Mus musculus; B16, 72 hours, 50% of cells killed
Source text: as §1

[4] = test system: human colon tumor (HCT116); experiment: In vitro microdilution inhibition, HCT116; assay type: cell-based; conditions: HCT-116, 72 hours, 50% of cells killed
Source text: as §1

[5] = test system: human colon tumor with elevated p170 levels (HCTVM); experiment: In vitro microdilution inhibition, HCTVM; assay type: cell-based; conditions: 72 hours, 50% of cells killed
Source text: as §1

[6] = test system: human colon tumor with low topo II activity (HCTVP); experiment: In vitro microdilution inhibition, HCTVP; assay type: cell-based; conditions: 72 hours, 50% of cells killed
Source text: as §1

[7] = test system: p388 murine leukemia; experiment: In vivo activity against p388 murine leukemia in an acute mouse model; conditions: CDF1 (female only); for AWC (average weight change per mouse): before treatment to day five
Experimental: CDF1 mice of both sexes weighing between 16 and 25 gm. were used, with a 2 gm. weight range and same sex and source used per experiment. BDF1 mice also were used with the same weight, sex and source parameters. Control and test animals were injected interperitoneally with suspension of 1×10^6 p388 murine leukemia cells (0.5 mL dose) on day 0. Groups of 4-6 mice were used for each dosage amount they were treated with 5 doses on day one. A group of ten saline treated control mice was included in each set of experiments. A 30 day protocol was employed with mean survival time in days being determined for each group of mice with the number of survivors at the end of the 30 day period being noted. The mice were weighed before treatment and again on day five. The values listed for average weight change (AWC) is the average weight change per mouse at the specified dose. The change in weight was taken as a measure of drug toxicity. A loss in weight of up to 2 grams is not considered excessive. The results were determined in terms of % T/C which is the ratio of the mean survival time of the treated group to the mean survival time of the saline treated group times 100.

O=C1C=CC(=O)c2c(O)c3c(c(O)c21)C(=O)C1(CCc2ccccc21)C3=O [Example 4, 2',3'-Dihydro-1H-indene-1'-spiro-2-[4,9-dihydroxy-2H-benz[f]-indene-1,3,5,8-tetrone]]
IC50 [1]: 1.5 µg/mL (≈ 4.16 µM)
IC50 [2]: 2.3 µg/mL (≈ 6.38 µM)
IC50 [3]: 1 µg/mL (≈ 2.78 µM)
IC50 [4]: 0.3 µg/mL (≈ 0.833 µM)
IC50 [5]: 0.3 µg/mL (≈ 0.833 µM)
IC50 [6]: 0.4 µg/mL (≈ 1.11 µM)

COCOc1cccc2c1C1(CC2)C(=O)c2c(O)c3c(c(O)c2C1=O)C(=O)C(OC)=CC3=O (centres unmarked) [Example 5, 2',3'-Dihydro-7'-(methoxymethoxy)-6-methoxy-1H-indene-1'-spiro-2-[4,9-dihydroxy-2H-benz[f]indene-1,3,5,8-tetrone]]
IC50 [1]: 0.4 µg/mL (≈ 0.888 µM)
IC50 [2]: 1.1 µg/mL (≈ 2.44 µM)
IC50 [3]: 0.7 µg/mL (≈ 1.55 µM)
IC50 [4]: 0.09 µg/mL (≈ 0.2 µM)
IC50 [5]: 0.2 µg/mL (≈ 0.444 µM)
IC50 [6]: 0.2 µg/mL (≈ 0.444 µM)

COC1=CC(=O)c2c(O)c3c(c(O)c2C1=O)C(=O)C1(CCc2cccc(O)c21)C3=O (centres unmarked) [Example 6, 2',3'-Dihydro-7'-hydroxy-6-methoxy-1H-indene-1'-spiro-2-[4,9-dihydroxy-2H-benz[f]indene-1,3,5,8-tetrone]]
IC50 [1]: 4.9 µg/mL (≈ 12.1 µM)
IC50 [2]: 6.4 µg/mL (≈ 15.8 µM)
IC50 [3]: 5.2 µg/mL (≈ 12.8 µM)
IC50 [4]: 1.6 µg/mL (≈ 3.94 µM)
IC50 [5]: 1.7 µg/mL (≈ 4.18 µM)
IC50 [6]: 3.5 µg/mL (≈ 8.61 µM)

CCNC1=CC(=O)c2c(O)c3c(c(O)c2C1=O)C(=O)C1(CCc2cccc(OCOC)c21)C3=O (centres unmarked) [Example 11, 2',3'-Dihydro-6-ethylamino-7'-(methoxymethoxy)-1H-indene-1'-spiro-2-[4,9-dihydroxy-2H-benz[f]-indene-1,3,5,8-tetrone]]
IC50 [1]: < 0.03 µg/mL
IC50 [2]: 0.03 µg/mL (≈ 0.0647 µM)
IC50 [3]: 0.03 µg/mL (≈ 0.0647 µM)
IC50 [4]: 0.03 µg/mL (≈ 0.0647 µM)
IC50 [5]: 0.03 µg/mL (≈ 0.0647 µM)
IC50 [6]: 0.03 µg/mL (≈ 0.0647 µM)

COCOc1cccc2c1C1(CC2)C(=O)c2c(O)c3c(c(O)c2C1=O)C(=O)C(NCC(F)(F)F)=CC3=O (centres unmarked) [Example 13, 2',3'-Dihydro-6-(2,2,2-trifluoroethylamino)-7'-(methoxymethoxy)-1H-indene-1'-spiro-2-[4,9-dihydroxy-2H-benz[f]-indene-1,3,5,8-tetrone]]
IC50 [1]: < 0.03 µg/mL
IC50 [2]: 0.05 µg/mL (≈ 0.0966 µM)
IC50 [3]: 0.03 µg/mL (≈ 0.058 µM)
IC50 [4]: 0.03 µg/mL (≈ 0.058 µM)
IC50 [5]: 0.03 µg/mL (≈ 0.058 µM)
IC50 [6]: 0.04 µg/mL (≈ 0.0773 µM)

COCOc1cccc2c1C1(CC2)C(=O)c2c(O)c3c(c(O)c2C1=O)C(=O)C(N)=CC3=O (centres unmarked) [Example 14, 6-amino-2',3'-dihydro-7'-(methoxymethoxy)-1H-indene-1'-spiro-2-[4,9-dihydroxy-2H-benz[f]-indene-1,3,5,8-tetrone]]
IC50 [1]: < 0.03 µg/mL
IC50 [2]: 0.03 µg/mL (≈ 0.0689 µM)
IC50 [3]: 0.03 µg/mL (≈ 0.0689 µM)
IC50 [4]: 0.03 µg/mL (≈ 0.0689 µM)
IC50 [5]: 0.03 µg/mL (≈ 0.0689 µM)
IC50 [6]: 0.03 µg/mL (≈ 0.0689 µM)

COCOc1cccc2c1C1(CC2)C(=O)c2c(O)c3c(c(O)c2C1=O)C(=O)C(NCC(O)c1ccccc1)=CC3=O (centres unmarked) [Example 17, 2',3'-Dihydro-7'-(methoxymethoxy)-1H-indene-1'-spiro-2-[6-(2-hydroxy-2-phenyl-ethylamino)-4,9-dihydroxy-2H-benz[f]indene-1,3,5,8-tetrone]]
IC50 [3]: 15 µg/mL (≈ 27 µM)
IC50 [4]: 1.47 µg/mL (≈ 2.65 µM)

COCOc1cccc2c1C1(CC2)C(=O)c2c(O)c3c(c(O)c2C1=O)C(=O)C(Nc1ccccc1)=CC3=O (centres unmarked) [Example 18, 2',3'-Dihydro-7'-(methoxymethoxy)-1H-indene-1,-spiro-2-[6-(phenylamino)-4,9-dihydroxy-2H-benz[f]indene-1,3,5,8-tetrone]]
IC50 [1]: 0.08 µg/mL (≈ 0.156 µM)
IC50 [2]: 0.06 µg/mL (≈ 0.117 µM)
IC50 [3]: 0.08 µg/mL (≈ 0.156 µM)
IC50 [4]: 0.09 µg/mL (≈ 0.176 µM)
IC50 [5]: 0.11 µg/mL (≈ 0.215 µM)
IC50 [6]: 0.07 µg/mL (≈ 0.137 µM)

COCOc1cccc2c1C1(CC2)C(=O)c2c(O)c3c(c(O)c2C1=O)C(=O)C(Nc1ccc(C(=O)O)cc1)=CC3=O (centres unmarked) [Example 19, 2',3'-Dihydro-7'-(methoxymethoxy)-1H-indene-1'-spiro-2-[6-(4-carboxyanilino)-4,9-dihydroxy-2H-benz[f]indene-1,3,5,8-tetrone]]
IC50 [3]: 27 µg/mL (≈ 48.6 µM)
IC50 [4]: 322 µg/mL (≈ 580 µM)

COCOc1cccc2c1C1(CC2)C(=O)c2c(O)c3c(c(O)c2C1=O)C(=O)C(Nc1ccc(O)cc1)=CC3=O (centres unmarked) [Example 21, 2',3'-Dihydro-7'-(methoxymethoxy)-1H-indene-1'-spiro-2-[6-(4-hydroxyanilino)-4,9-dihydroxy-2H-benz[f]indene-1,3,5,8-tetrone]]
IC50 [3]: 18.7 µg/mL (≈ 35.5 µM)
IC50 [4]: 6.79 µg/mL (≈ 12.9 µM)

CCCCCc1cc2cc3c(c(OCOC)c2c(OC)n1)C1(CC3)C(=O)c2c(O)c3c(c(O)c2C1=O)C(=O)C(NCC)=CC3=O (centres unmarked) [Example 22, 6',7'-Dihydro-4,9-dihydroxy-6-ethylamino-1'-methoxy-9'-(methoxymethoxy)-3'-(n-pentyl)-spiro[2H-benz[f]-indene-2,8'[8H]cyclopent[g]isoquinoline]-1,3,5,8-tetrone]
AWC (average weight change per mouse) ([7]; 3.3 mg/kg): 1.5
AWC (average weight change per mouse) ([7]; 10 mg/kg): 1.0
AWC (average weight change per mouse) ([7]; 30 mg/kg): -0.2
response vs control in vivo at 3.3 mg/kg ([7]; Mus musculus, P388, 720 h, 3.3 mg/kg, read-out: % T/C (mean survival time treated/control)): 95%
response vs control in vivo at 10 mg/kg ([7]; Mus musculus, P388, 720 h, 10 mg/kg, read-out: % T/C (mean survival time treated/control)): 105%
response vs control in vivo at 30 mg/kg ([7]; Mus musculus, P388, 720 h, 30 mg/kg, read-out: % T/C (mean survival time treated/control)): 135%

COCOc1cccc2c1C1(CC2)C(=O)c2c(O)c3c(c(O)c2C1=O)C(=O)C(N[C@@H](CC(N)=O)C(=O)O)=CC3=O (some centres unmarked) [Example 26, 2',3'-Dihydro-7'-(methoxymethoxy)-1H-indene-1'-spiro-2-4,9-dihydroxy-6-(1-carboxy-2-carbamoylethylamino)-2H-benz[f]indene-1,3,5,8-tetrone]
IC50 [3]: 9.3 µg/mL (≈ 16.9 µM)
IC50 [4]: 1.23 µg/mL (≈ 2.23 µM)

COCOc1cccc2c1C1(CC2)C(=O)c2c(O)c3c(c(O)c2C1=O)C(=O)C(NC1C(=O)N2C1SC(C)(C)C2C(=O)O)=CC3=O (centres unmarked) [Example 27, 6-((2',3'-dihydro-7'-(methoxymethoxy)-1H-indene-1'-spiro-[4,9-dihydroxy-2H-benz[f]indene-1,3,5,8-tetrone]-6-yl)amino)penicillanic acid]
IC50 [3]: 0.24 µg/mL (≈ 0.378 µM)
IC50 [6]: 0.22 µg/mL (≈ 0.347 µM)

N=C(N)NCCC[C@H](NC1=CC(=O)c2c(O)c3c(c(O)c2C1=O)C(=O)C1(CCc2cccc(O)c21)C3=O)C(=O)O (some centres unmarked) [Example 28]
IC50 [3]: > 500 µg/mL
IC50 [4]: 71 µg/mL (≈ 129 µM)

COCOc1cccc2c1C1(CC2)C(=O)c2c(O)c3c(c(O)c2C1=O)C(=O)C(SCCO)=CC3=O (centres unmarked) [Example 33, 2',3'-Dihydro-7'-(methoxymethoxy)-1H-indene-1'-spiro-2-[4,9-dihydroxy-6-(2-hydroxyethylmercapto)-2H-benz[f]indene-1,3,5,8-tetrone]]
IC50 [3]: 107 µg/mL (≈ 216 µM)
IC50 [4]: 5.08 µg/mL (≈ 10.2 µM)

COCOc1cccc2c1C1(CC2)C(=O)c2c(O)c3c(c(O)c2C1=O)C(=O)C(Sc1ccccc1)=CC3=O (centres unmarked) [Example 34, 2',3'-Dihydro-7'-(methoxymethoxy)-1H-indene-1'-spiro-2-[4,9-dihydroxy-6-(phenylmercapto)-2H-benz[f]indene-1,3,5,8-tetrone]]
IC50 [3]: 110 µg/mL (≈ 208 µM)
IC50 [4]: 78 µg/mL (≈ 148 µM)

NCCSSCCNC1=CC(=O)c2c(O)c3c(c(O)c2C1=O)C(=O)C1(CCc2cccc(O)c21)C3=O (centres unmarked) [Example 35, 2',3'-Dihydro-7'-hydroxy-1H-indene-1'-spiro-2-[4,9-dihydroxy-6-(2(2-aminoethyldithio)ethylamino)-2H-benz[f]indene-1,3,5,8-tetrone] hydrochloride]
IC50 [3]: 24 µg/mL
IC50 [6]: 22 µg/mL

COCOc1cccc2c1C1(CC2)C(=O)c2c(O)c3c(c(O)c2C1=O)C(=O)C(Nc1ccc(SSc2ccc(N)cc2)cc1)=CC3=O (centres unmarked) [Example 36, 2',3'-Dihydro-7'-(methoxymethoxy)-1H-indene-1'-spiro-2-[4,9-dihydroxy-6-(4-(4-aminophenyldithio)phenylamino)-2H-benz[f]indene-1,3,5,8-tetrone]]
IC50 [3]: 458 µg/mL (≈ 687 µM)
IC50 [4]: > 500 µg/mL
